Reference: patent publication US20250195551A1 (L4 BIO LLC, priority 2023, published 2025)

Test: Solubility determination of ivermectin in excipients
Procedure: The solubility assessments were performed by continually adding a known amount of the API into each individual excipient and letting the excipient reach solubility equilibrium via API saturation (visible solid observed). The experiments were conducted at ambient conditions (25° C.) and were left to mix on a stir plate at 500 RPM for at least 72 hours.

In the case of ivermectin, the Solubility (in Capryol 90, 25° C.) is reported as 150.92 mg/g, the Solubility (in Fractionated Coconut oil, 25° C.) is reported as 16.55 mg/g and the Solubility (in Glycerin, 25° C.) is reported as <0.1 mg/g. The Solubility (in Kolliphor EL, 25° C.) was 95.85 mg/g, the Solubility (in Labrafil M 2125 CS, 25° C.) was 35.32 mg/g and the Solubility (in Labrasol ALF, 25° C.) was 126.36 mg/g. For the same substance, the Solubility (in LauroglycolTM FCC, 25° C.) was 71.96 mg/g, the Solubility (in Maisine CC, 25° C.) was 60.17 mg/g and the Solubility (in Masester E8120, 25° C.) was 164.06 mg/g. The Solubility (in Medium Chain Triglyceride, 25° C.) was 16.49 mg/g, the Solubility (in Oleic acid, 25° C.) was 48.58 mg/g and the Solubility (in Olive oil, 25° C.) was 4.71 mg/g. The Solubility (in PEG 400, 25° C.) was 112.92 mg/g, the Solubility (in Propylene glycol, 25° C.) was 25.61 mg/g and the Solubility (in Soybean oil, 25° C.) was 6.72 mg/g. It also gave a Solubility (in Span 20, 25° C.) of 97.66 mg/g, a Solubility (in Span 80, 25° C.) of 54.04 mg/g and a Solubility (in Triacetin, 25° C.) of 58.75 mg/g. The Solubility (in Tween 80, 25° C.) was 88.26 mg/g and the Solubility (in Vitamin E TPGS, table title 25° C., text: conducted at 40° C.) was 82.98 mg/g.
